Reference: patent publication US8557819B2 (priority 2005, dated 2013)
Counter-ions that a name gives are not always drawn.

Tested on: not given
Experiment: not given

Question: For `c1cncc(-c2ccc(C34CCCN(CC3)C4)nn2)c1` (racemic), which melting point is on record?
Answer: 131 to 133 °C

Question: For `c1c[nH]c(-c2ccc(C34CCCN(CC3)C4)nn2)c1` (stereo not drawn), which melting point is on record?
Answer: 207 to 209 °C

Question: Which melting point does the source give for `Cc1csc(-c2ccc(C34CCCN(CC3)C4)nn2)c1` (racemic) [Compound 3] here?
Answer: 139 to 140 °C

Question: With `c1n[nH]cc1-c1ccc(C23CCCN(CC2)C3)nn1` (stereo not drawn) (as salt: HBr) [20] as the compound, how does the melting point read?
Answer: 221 to 223 °C

Question: With `c1c[nH]c(-c2ccc(C34CCCN(CC3)C4)nn2)n1` (stereo not drawn) (as salt: HBr) as the compound, how does the melting point read?
Answer: 290 to 292 °C

Question: With `c1nc(-c2ccc(C34CCCN(CC3)C4)nn2)c[nH]1` (stereo not drawn) (as salt: HCl) [18] as the compound, how does the melting point read?
Answer: 271 to 273 °C

Question: For `Clc1ccc(C23CCCN(CC2)C3)nn1` (racemic) (as salt: HCl), which melting point is on record?
Answer: 234 to 235 °C

Question: For `c1coc(-c2ccc(C34CCCN(CC3)C4)nn2)c1` (racemic) (as salt: HCl) [Compound 8], which melting point is on record?
Answer: 274 to 275 °C

Question: Which melting point does the source give for `c1cc(-c2ccc(C34CCCN(CC3)C4)nn2)co1` (stereo not drawn) (as salt: HCl) here?
Answer: 226 to 228 °C

Question: For `c1cc(-c2ccc(C34CCCN(CC3)C4)nn2)co1` (racemic), which melting point is on record?
Answer: 140 to 141 °C

Question: With `COc1ccc(-c2ccc(C34CCCN(CC3)C4)nn2)cc1` (racemic) (as salt: HCl) [Compound 7] as the compound, how does the melting point read?
Answer: 229 to 231 °C

Question: With `c1n[nH]cc1-c1ccc(C23CCCN(CC2)C3)nn1` (stereo not drawn) (as salt: HBr) [22] as the compound, how does the melting point read?
Answer: 295 to 297 °C

Target: nicotinic receptors containing the α7 subunit (Rattus norvegicus, UniProt Q05941)
Experiment: biochemical
Assay type: binding

Chain of nicotinic receptors containing the α7 subunit (Q05941 23-502): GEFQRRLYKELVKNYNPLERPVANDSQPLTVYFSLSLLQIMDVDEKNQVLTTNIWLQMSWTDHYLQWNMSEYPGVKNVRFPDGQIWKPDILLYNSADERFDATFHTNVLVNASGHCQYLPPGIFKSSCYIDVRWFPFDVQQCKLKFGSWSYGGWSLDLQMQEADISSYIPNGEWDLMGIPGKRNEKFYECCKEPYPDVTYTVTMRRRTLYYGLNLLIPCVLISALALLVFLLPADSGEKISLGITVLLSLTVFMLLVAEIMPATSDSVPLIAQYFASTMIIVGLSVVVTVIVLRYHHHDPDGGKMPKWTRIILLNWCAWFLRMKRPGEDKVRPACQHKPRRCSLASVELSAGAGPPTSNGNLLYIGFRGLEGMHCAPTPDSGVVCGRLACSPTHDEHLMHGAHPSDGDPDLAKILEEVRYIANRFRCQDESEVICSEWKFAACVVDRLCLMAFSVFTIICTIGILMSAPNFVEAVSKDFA

Question: Which IC50 does the source give for `Cc1csc(-c2ccc(C34CCCN(CC3)C4)nn2)c1` (racemic) [Compound 3] here?
Answer: 428 nM

Question: Which IC50 does the source give for `COc1ccc(-c2ccc(C34CCCN(CC3)C4)nn2)cc1` (racemic) [Compound 7] here?
Answer: 164 nM

Question: With `c1coc(-c2ccc(C34CCCN(CC3)C4)nn2)c1` (racemic) [Compound 8] as the compound, how does the IC50 read?
Answer: 442 nM
